Data on 18 compounds can be found in patent publication US8569339B2, “Soluble guanylate cyclase activators” (Boehringer Ingelheim International GmbH, priority 2011, dated 2013).

≈ marks a conversion by molar mass, not a printed value. Where “and” joins values, the source holds several entries; their conditions need not be identical. Identical values can stand only once.

The target of data set [1] is T1, Recombinant human soluble guanylate cyclase (sGC) (Homo sapiens, UniProt Q02153).
T1 construct: histidine tag (C); made in house; host or cells: Sf9 insect cells (baculovirus coinfection)
Kind of data set: Molecular assay: activation of heme-free sGC, cGMP detection (CisBio kit). In kind it is biochemical. To be noted: 300 pM heme-free sGC, 37° C., 60 minutes, cGMP formation. A digest of the protocol: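 Heme-free human α1/β1 sGC (His-tagged, Sf9-expressed, Tween 20-treated) at 300 pM incubated with compound in pH 6.8 MOPS buffer with 50 nM GTP, IBMX, 1% DMSO, 60 min at 37 °C. cGMP quantified by HTRF against a calibration curve; EC50 from combined undiluted and 80-fold diluted readings.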

Data set [2] in a line: Assessment of solubility (HT solubility, pION, UV). In kind it is physicochemical. To be noted: incubated 16-19 hours, 1.0% DMSO, 100 uM; for solubility kinetic: pH 4.5 buffer (pION system solution), pH 4.5, aqueous buffer, kinetic from dmso stock, read-out: Sol pH 4.5; for solubility kinetic / Sol pH 4.5: pH 4.5 buffer; for Sol pH 7.4: pH 7.4 buffer. A digest of the protocol: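 Compounds were taken from 10 mM DMSO stocks into pH 4.5 or pH 7.4 buffer at 100 uM final (1.0% DMSO), run in duplicate, and incubated sealed for 16-19 h. Filtrates were diluted with N-propanol and read by UV at 250-498 nm against blank and reference spectra, […].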

T1 sequence (Q02108 whole entry partner): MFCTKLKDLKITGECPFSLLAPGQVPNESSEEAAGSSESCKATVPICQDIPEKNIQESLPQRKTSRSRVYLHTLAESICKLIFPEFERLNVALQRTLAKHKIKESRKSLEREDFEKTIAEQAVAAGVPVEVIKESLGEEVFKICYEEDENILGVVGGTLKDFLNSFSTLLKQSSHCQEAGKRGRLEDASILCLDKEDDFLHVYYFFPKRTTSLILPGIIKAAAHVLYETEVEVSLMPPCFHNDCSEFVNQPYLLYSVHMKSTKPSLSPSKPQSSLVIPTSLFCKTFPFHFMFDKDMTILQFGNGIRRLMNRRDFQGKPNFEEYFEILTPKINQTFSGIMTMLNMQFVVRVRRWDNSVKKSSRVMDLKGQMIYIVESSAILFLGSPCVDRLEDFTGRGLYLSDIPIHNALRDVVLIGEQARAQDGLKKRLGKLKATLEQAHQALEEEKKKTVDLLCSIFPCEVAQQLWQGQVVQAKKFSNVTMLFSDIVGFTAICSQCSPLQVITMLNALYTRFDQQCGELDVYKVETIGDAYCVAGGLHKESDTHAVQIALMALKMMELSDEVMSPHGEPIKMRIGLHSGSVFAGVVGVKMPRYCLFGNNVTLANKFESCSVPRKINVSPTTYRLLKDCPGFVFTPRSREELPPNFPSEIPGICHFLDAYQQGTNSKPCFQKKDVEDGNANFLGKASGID
T1 sequence (Q02153 whole entry): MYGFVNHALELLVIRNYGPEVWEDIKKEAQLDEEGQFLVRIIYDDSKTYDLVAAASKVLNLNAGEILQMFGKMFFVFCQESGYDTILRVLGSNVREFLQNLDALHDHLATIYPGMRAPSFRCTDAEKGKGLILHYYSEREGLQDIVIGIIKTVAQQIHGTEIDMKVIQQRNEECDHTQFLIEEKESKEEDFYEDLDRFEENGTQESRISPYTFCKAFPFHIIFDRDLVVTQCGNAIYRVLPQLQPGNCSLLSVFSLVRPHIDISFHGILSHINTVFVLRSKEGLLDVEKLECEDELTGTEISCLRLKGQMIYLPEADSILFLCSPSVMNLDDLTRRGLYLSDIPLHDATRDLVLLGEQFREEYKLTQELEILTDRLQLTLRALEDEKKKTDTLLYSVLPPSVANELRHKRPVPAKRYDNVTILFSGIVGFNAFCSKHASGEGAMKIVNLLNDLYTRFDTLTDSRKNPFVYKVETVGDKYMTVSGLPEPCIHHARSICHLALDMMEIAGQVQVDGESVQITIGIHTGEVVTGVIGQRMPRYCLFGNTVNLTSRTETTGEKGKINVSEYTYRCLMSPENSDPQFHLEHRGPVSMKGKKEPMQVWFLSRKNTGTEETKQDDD

With `Cc1cc(CN2CCc3cc(COc4c(C)cccc4-c4cccc(-c5ncc(C(=O)O)n5C)n4)ccc3C2)no1` [Compound 72], the EC50 in data set [1] turned out to be 27 nM. Further, in data set [2], the solubility kinetic was > 67 µg/mL and the “Sol pH 7.4” value is listed as >67 μg/mL.
For the compound `Cc1cccc(-c2cccc(-c3ncc(C(=O)O)n3C)n2)c1OCc1ccc2c(c1)CCN(CC1CCCOC1)C2` (centres unmarked) [Compound 73], the half-maximal effective concentration (EC50) in data set [1] was 47 nM. In addition, in data set [2], the solubility kinetic is > 67 µg/mL; the “Sol pH 4.5” value is on record as >66 μg/mL; the “Sol pH 7.4” value is >67 μg/mL and >66 μg/mL.
On to `Cc1cccc(-c2cccc(-c3ncc(C(=O)O)n3C)n2)c1OCc1ccc2c(c1)CCN(C1CCC(F)(F)CC1)C2` [Compound 74], for which the EC50 in data set [1] is 27 nM. In data set [2], the solubility kinetic was > 66 µg/mL; the “Sol pH 4.5” value is reported as >68 μg/mL; the “Sol pH 7.4” value was >66 μg/mL and >68 μg/mL.
`Cc1cccc(-c2cccc(-c3ncc(C(=O)O)n3C)n2)c1OCc1ccc2c(c1)CCN(C1CCCOC1)C2` (centres unmarked) [Compound 75]: the half-maximal effective concentration (EC50) in data set [1] worked out at 175 nM. In data set [2], the solubility kinetic is > 65 µg/mL and the “Sol pH 7.4” value is >65 μg/mL.
Turning to `Cc1cccc(-c2cccc(-c3ncc(C(=O)O)n3C)n2)c1OCc1ccc2c(c1)CCN(C1CCCCCC1)C2` [Compound 76], the EC50 in data set [1] came to 100 nM. Moreover, in data set [2], the solubility kinetic is > 66 µg/mL and the “Sol pH 7.4” value is >66 μg/mL.
With `Cc1ccc(OCc2ccc3c(c2C)CCN(C)C3)c(-c2cccc(-c3c(C)c(C(=O)O)nn3C)n2)c1` [Compound 78], the EC50 in data set [1] turned out to be 970 nM. Further, in data set [2], the solubility kinetic was 24.1 µg/mL (≈ 48.5 µM) and the “Sol pH 7.4” value worked out at 24.2 μg/mL.
For the compound `Cc1ccc(OCc2ccc3c(c2)CCN(C2CCOCC2)C3)c(-c2cccc(-c3c(C)c(C(=O)O)nn3C)n2)c1` [Compound 79], the EC50 in data set [1] was 1200 nM. Besides, in data set [2], the solubility kinetic is > 80 µg/mL and the “Sol pH 7.4” value was >80 μg/mL.
As to `Cc1ccc(OCc2ccc3c(c2C)CCN(C2CCOCC2)C3)c(-c2cccc(-c3c(C)c(C(=O)O)nn3C)n2)c1` [Compound 80], the half-maximal effective concentration (EC50) in data set [1] was determined as 155 nM. Moreover, in data set [2], the solubility kinetic is > 81 µg/mL and the “Sol pH 7.4” value is recorded as >81 μg/mL.
For `Cc1cccc(-c2cccc(-c3c(C)c(C(=O)O)nn3C)n2)c1OCc1ccc2c(c1)CCN(C1CCOCC1)C2` [Compound 81] the same measures were 185 nM, 48.4 µg/mL (≈ 87.6 µM) and 31.7 μg/mL.
For `CCn1nc(C(=O)O)c(C)c1-c1cccc(-c2cccc(C)c2OCc2ccc3c(c2)CCN(C2CCOCC2)C3)n1` [Compound 82] the same measures were 210 nM, > 67 µg/mL and >67 μg/mL.
`Cc1cccc(-c2cccc(-c3c(C)c(C(=O)O)nn3C(C)C)n2)c1OCc1ccc2c(c1)CCN(C1CCOCC1)C2` [Compound 83]: the EC50 in data set [1] was 50 nM. Further, in data set [2], the solubility kinetic was > 69 µg/mL and the “Sol pH 7.4” value is given as >69 μg/mL.
Consider `Cc1cccc(-c2cccc(-c3c(C)c(C(=O)O)nn3C(C)(C)C)n2)c1OCc1ccc2c(c1)CCN(C1CCOCC1)C2` [Compound 84], for which the EC50 in data set [1] is 69 nM. Besides, in data set [2], the solubility kinetic is > 70 µg/mL and the “Sol pH 7.4” value is on record as >70 μg/mL.
In the case of `Cc1cccc(-c2cccc(-c3c(C)c(C(=O)O)nn3CCC(=O)O)n2)c1OCc1ccc2c(c1)CCN(C1CCOCC1)C2` [Compound 85], the 50% effective concentration (EC50) in data set [1] was found to be 94 nM. Besides, in data set [2], the solubility kinetic is > 60 µg/mL and the “Sol pH 7.4” value is listed as >60 μg/mL.
Regarding `Cc1cccc(-c2cccc(-c3onc(C(=O)O)c3C)n2)c1OCc1ccc2c(c1)CCN(C1CCOCC1)C2` [Compound 86, 4-methyl-5-[6-[3-methyl-2-[(2-tetrahydropyran-4-yl-3,4-dihydro-1H-isoquinolin-6-yl)methoxy]phenyl]-2-pyridyl]isoxazole-3-carboxylic acid], in data set [1], the 50% effective concentration (EC50) is 775 nM. Also, in data set [2], the solubility kinetic was > 65 µg/mL and the “Sol pH 7.4” value is recorded as >65 μg/mL.
The corresponding values for `Cc1cccc(-c2cccc(-c3c(C)c(C(=O)O)nn3CC(F)(F)F)n2)c1OCc1ccc2c(c1)CCN(C1CCOCC1)C2` [Compound 87] are 180 nM, 17.3 µg/mL (≈ 27.9 µM) and 14.1 μg/mL.
Consider `Cc1cccc(-c2cccc(-c3c(C)c(C(=O)O)nn3C3CCOCC3)n2)c1OCc1ccc2c(c1)CCN(C1CCOCC1)C2` [Compound 89], for which the EC50 in data set [1] turned out to be 700 nM. Also, in data set [2], the solubility kinetic amounted to 51.5 µg/mL (≈ 82.7 µM) and the “Sol pH 7.4” value is given as >62 μg/mL.
For `Cc1cccc(-c2cccc(-c3c(C)c(C(=O)O)nn3C3CC3)n2)c1OCc1ccc2c(c1)CCN(C1CCC(F)(F)CC1)C2` [Compound 90] the same measures were 15 nM, 49 µg/mL (≈ 80 µM) and 50.2 μg/mL.
For `Cc1cccc(-c2cccc(-c3c(C)c(C(=O)O)nn3C3CC3)n2)c1OCc1ccc2c(c1)CCN(C1CCOCC1)C2` [Compound 91] the same measures were 160 nM, > 69 µg/mL and >69 μg/mL.

In general, EC50 refers to the concentration that produces a half-maximal response.
